Assay results: patent publication US8741579B2, “Compounds and methods for the modulation of beta-1 integrin function to mediate tissue repair” (priority 2007, dated 2014)
Where a SMILES comes first, the peptide text is derived from it. The star is where a group is joined. Cbz = O=C(OCc1ccccc1)*; CH2F = FC*

Assays:
[1] = system: adult human lung fibroblasts (CCD-8Lu) overlayered with NCI-H441 cells; experiment: Caspase 3/7 activity (Caspase-Glo 3/7) in human lung co-culture under cyclic stretch; format: cell-based; details: cyclic stretch 6 hours; JB1a 1 μg/ml; ZVAD-fmk 10 or 20 μM
Protocol: (§1) Adult human lung fibroblasts (CCD-8Lu) were seeded onto collagen I coated BioFlex 6 well plates at 0.5×10^6/well. The following day, NCI-H441 were seeded on top of the fibroblasts at the same density. […] Cells were starved with media containing 0.1% FCS. The plates were subjected to stretching at 0-5%, 0-10% or 2-10% sinusoidal stretch at 1 Hz for 6 hours. Control plates on plastic or bioflex plates without stretch were also included. PPE was added at 0.06 or 0.3 U/ml alone or in combination with JB1a (1 μg/ml) and ZVAD-fmk at 10 or 20 μM. At the end of the 6 hour period, the media was aspirated and caspase 3 activity assayed using Caspase-Glo™ 3/7 (Promega) according to the manufacturers' instructions. Separate experiments were performed at up to 6 hours of stretching where the cells were fixed with 4% paraformaldehyde and stained using Alexa-fluor phalloidin and TO-PRO3 (Molecular Probes). Images were acquired using Zeiss Axioskope using a x63 water achroplan objective and analysed using LSM 5 Image software.

[2] = system: adult human lung fibroblasts (CCD-8Lu) overlayered with NCI-H441 cells; experiment: F-actin aggregates (phalloidin staining) in human lung co-culture under stretch; format: cell-based; details: stretch up to 6 hours; JB1a 1 μg/ml; ZVAD-fmk
Protocol: as §1

[3] = target: human beta 1 integrin (Integrin beta-1 precursor, Fibronectin receptor subunit beta, Integrin VLA-4 subunit beta, CD29 antigen) (human) (UniProt P05556); experiment: cell-based or functional assay
Chain of UniProt P05556 (P05556 21-798 T112H/S215T): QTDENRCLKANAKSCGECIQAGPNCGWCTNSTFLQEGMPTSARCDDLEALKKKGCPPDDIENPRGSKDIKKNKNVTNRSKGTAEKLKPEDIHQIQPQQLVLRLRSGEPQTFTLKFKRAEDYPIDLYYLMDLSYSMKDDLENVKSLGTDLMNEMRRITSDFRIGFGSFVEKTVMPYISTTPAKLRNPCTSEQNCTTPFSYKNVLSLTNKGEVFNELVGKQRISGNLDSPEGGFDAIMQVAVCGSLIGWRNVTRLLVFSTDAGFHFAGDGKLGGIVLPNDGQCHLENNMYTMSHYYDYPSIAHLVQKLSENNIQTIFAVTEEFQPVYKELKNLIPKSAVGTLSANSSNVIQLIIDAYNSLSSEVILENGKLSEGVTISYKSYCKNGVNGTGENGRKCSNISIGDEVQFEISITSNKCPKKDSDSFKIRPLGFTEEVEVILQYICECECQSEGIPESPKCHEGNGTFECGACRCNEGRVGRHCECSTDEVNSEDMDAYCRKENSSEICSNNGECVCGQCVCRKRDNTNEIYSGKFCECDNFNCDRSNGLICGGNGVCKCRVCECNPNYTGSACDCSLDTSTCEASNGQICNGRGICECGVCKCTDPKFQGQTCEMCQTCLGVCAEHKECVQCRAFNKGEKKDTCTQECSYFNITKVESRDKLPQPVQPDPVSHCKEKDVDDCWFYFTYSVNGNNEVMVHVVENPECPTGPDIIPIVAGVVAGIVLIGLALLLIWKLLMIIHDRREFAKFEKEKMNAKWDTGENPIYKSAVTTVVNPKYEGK

IL-1beta-stimulated IL-8 secretion by primary human chondrocytes, reduction [3] [%] | Molecule | elastase-induced caspase 3 and 7 activation [1] | elastase-induced increase in F-actin aggregates [2]
 | COC(=O)C[C@H](NC(=O)[C@H](C)NC(=O)[C@@H](NC(=O)OCc1ccccc1)C(C)C)C(=O)CF [ZVAD-fmk] (Cbz-Val-Ala-Asp(OMe)-CH2F) | inhibited elastase-induced caspase activation | inhibited
50 | JB1a monoclonal antibody (JB1A mouse anti-CD29 (Integrin beta-1 subunit) IgG monoclonal antibody, unconjugated, clone JB1a, Millipore, Catalogue number MAB-1965) |  | 
